Our source for the IC50 values is patent US20240043420A1, “7-AZAINDOLE COMPOUNDS FOR INHIBITION OF BCR-ABL TYROSINE KINASES” (EnLiven Therapeutics, Inc., priority 2020, published 2024).

Like-named read-outs stand apart in the source and are kept apart here. Where only a bound is given, the exact number is not on record here.

One test deals with K562 cells. Kind of test: K562 cell proliferation assay (CellTiter-Glo). The format is cell-based. As to conditions: CellTiter-Glo viability, read-out: Cell Line (IC50, nM) K562. As for the experimental part: (§1) K562 and HL60 cells, cultured in Iscove's Modified Dulbecco's Media (IMDM) supplemented with 10% FBS, were harvested at 50-80% confluency and plated at 2,000 cells per well (K562) or 1,500 cells per well (HL60) in 384-well tissue culture plates. A subset of wells contained media only (low control, LC). Compounds were serially diluted in DMSO. 40 nL of compound or DMSO only (high control, HC) were added to each well using an Echo 550 liquid handler (Labcyte). The plates were placed in a 37° C. incubator with 5% CO2 for 72 hours. Cell viability was measured using a CellTiter-Glo luminescent cell viability assay (Promega), which allows for relative quantification of metabolically active cells by luminescence-based measurements of intracellular ATP concentrations. Briefly, plates were removed from the incubator and equilibrated for 15 minutes at room temperature prior to the addition of 40 μL of CellTiter-Glo reagent. Plates were then incubated for 30 minutes at room temperature. Luminescence was measured using an EnSpire plate reader (Perkin Elmer). As noted above, luminescence values from wells with DMSO only or media without cells were used as high and low controls (HC and LC), respectively. Normalized percent viability was calculated as follows: percent viability=100×(Lumsample−LumLC)/(LumHC−LumLC).

The target in another test is ABL1 (T315I) (Homo sapiens, UniProt P00519, T315I). Kind of test: Luminescence-based ABL kinase assay (ADP-Glo, 300 μM ATP), T315I mutant. The format is biochemical. As to the method: (§2) Kinase activity of ABL1 was measured using the ADP-Glo system (Promega), which measures formation of ADP using a luminescence-based method. Compounds were serially diluted in DMSO. 20 nL of compound or DMSO only (high control, HC) were added to a 384-well plate (OptiPlate-384, PerkinElmer) using an Echo550 liquid handler (Labcyte). 15 μL of kinase solution (10 mM MgCl2, 0.01% Brij-35, 2 mM DTT, 0.05% BSA, 1 mM EGTA, 50 mM HEPES pH 7.5, and 3.325 nM ABL1 [Carna Biosciences]) were added to each well of the 384-well plate containing the compounds. No enzyme control wells were included (low control, LC). The plate was incubated at room temperature for 30 minutes. 5 μL of a second solution containing 10 mM MgCl2, 0.01% Brij-35, 2 mM DTT, 0.05% BSA, 1 mM EGTA, 50 mM HEPES pH 7.5, 6 μM Peptide 2 (Perkin Elmer, Cat No 760346), and 1.2 mM ATP were added to each well to start the kinase reaction. The plate was incubated for 90 minutes at room temperature. 20 μL of ADP-Glo reagent (Promega) were then added to each well and the plate was incubated for 40 minutes at room temperature. 40 μL of kinase detection reagent (Promega) was added to each well and the plate was incubated for an additional 45 minutes at room temperature. During this step, ADP was converted to ATP, a substrate for luciferase, to produce luminescence signal. Luminescence was measured on an Envision plate reader (Perkin Elmer). Luminescence signal positively correlates with kinase activity. The percent kinase activity was calculated as follows: percent kinase activity=100×(Lumsample−LumLC)/(LumHC−LumLC). As noted above, DMSO only and no enzyme wells were used as high and low controls, respectively. IC50 values were calculated using the XLFit software.

For a further test, the target named is T1, ABL1 (Homo sapiens, UniProt P00519).
T1 construct: purchased Carna Biosciences
Kind of test: Luminescence-based ABL kinase assay (ADP-Glo, 300 μM ATP). The format is biochemical. As for the experimental part:
as §2

The next test has as its system HL60 cells. Briefly: HL60 cell proliferation assay (CellTiter-Glo). It counts as cell-based. As to conditions: CellTiter-Glo viability, read-out: Cell Line (IC50, nM) HL60. As to the method: as §1

As for `CCN1CCN(CCNC(=O)Nc2ccc3c(-c4ccccc4OC)c[nH]c3n2)CC1` [Compound 109, 1-[2-(4-ethylpiperazin-1-yl)ethyl]-3-[3-(2-methoxyphenyl)-1H-pyrrolo[2,3-b]pyridin-6-yl]urea], the 50% inhibitory concentration (IC50) in the test with K562 cells (Homo sapiens, K562, 72 h) is 278 nM; against ABL1 (T315I), 7.08 nM; on ABL1, 39 nM; in the test with HL60 cells (Homo sapiens, HL-60, 72 h), more than 10000 nM.
For `COc1cccc(OC)c1-c1c[nH]c2nc(NC(=O)[C@@H]3C[C@@H]3F)ccc12` [Compound 118, (1S,2S)—N-[3-(2,6-dimethoxyphenyl)-1H-pyrrolo[2,3-b]pyridin-6-yl]-2-fluorocyclopropane-1-carboxamide], in that order: 24.4 nM, 1.48 nM, 3.73 nM and more than 10000 nM.
With `COc1nccc(OC2CC2)c1-c1c[nH]c2nc(NC(=O)[C@@H]3C[C@H]3OCCN(C)C)ccc12` [Compound 253], the IC50 with K562 cells (Homo sapiens, K562, 72 h) is 30.8 nM; against ABL1 (T315I), 8.81 nM; on ABL1, 6.71 nM; in the test on HL60 cells (Homo sapiens, HL-60, 72 h), more than 10000 nM.
For `O=C(Nc1ccc2c(-c3cccnc3OC(F)F)c[nH]c2n1)[C@@H]1C[C@@H]1F` [Compound 70, (1S,2S)—N-[3-[2-(difluoromethoxy)pyridin-3-yl]-1H-pyrrolo[2,3-b]pyridin-6-yl]-2-fluorocyclopropane-1-carboxamide], in that order: 312 nM, 140 nM, 60.3 nM and more than 10000 nM.
As for `COc1cccc(OC)c1-c1c[nH]c2nc(NC(=O)C3CC3CCN(C)C)ccc12` (single isomer, unassigned) [Example S205, Enantiomer 2, N-(3-(2,6-dimethoxyphenyl)-1H-pyrrolo[2,3-b]pyridin-6-yl)-2-(2-(dimethylamino)ethyl)cyclopropane-1-carboxamide], the IC50 was determined as 55.3 nM in the test with K562 cells (72 hours), 20.9 nM at ABL1 (T315I) and 15 nM on ABL1.
On to `COc1cccc(OC)c1-c1c[nH]c2nc(NC(=O)C3CC3)ccc12` [Compound 45, N-[3-(2,6-dimethoxyphenyl)-1H-pyrrolo[2,3-b]pyridin-6-yl]cyclopropanecarboxamide], for which the IC50 is 52.7 nM in the test with K562 cells (Homo sapiens, K562, 72 h) and more than 10000 nM in the test on HL60 cells (Homo sapiens, HL-60, 72 h).
On to `COc1nccc(OC2CC2)c1-c1c[nH]c2nc(NC(=O)C3CC3OCCN3CCC3)ccc12` (single isomer, unassigned) [Example S221, Enantiomer 1, 2-(2-(azetidin-1-yl)ethoxy)-N-(3-(4-cyclopropoxy-2-methoxypyridin-3-yl)-1H-pyrrolo[2,3-b]pyridin-6-yl)cyclopropane-1-carboxamide], for which the IC50 in the test on K562 cells (72 hours) was determined as 11.1 nM; with HL60 cells (Homo sapiens, HL-60, 72 h), 6590 nM.
On to `COc1nc2[nH]ncc2cc1-c1c[nH]c2nc(NC(=O)[C@@H]3C[C@@H]3F)ccc12` [Compound 144, (1S,2S)-2-fluoro-N-(3-[6-methoxy-1H-pyrazolo[3,4-b]pyridin-5-yl]-1H-pyrrolo[2,3-b]pyridin-6-yl)cyclopropane-1-carboxamide], for which the IC50 in the test on K562 cells (Homo sapiens, K562, 72 h) is 32 nM; with HL60 cells (Homo sapiens, HL-60, 72 h), more than 10000 nM.
Take `COc1nccc(OC2CC2)c1-c1c[nH]c2nc(NC(=O)C3CC3OCCN(C)C)ccc12` (single isomer, unassigned) [Example S220, Enantiomer 1, N-(3-(4-cyclopropoxy-2-methoxypyridin-3-yl)-1H-pyrrolo[2,3-b]pyridin-6-yl)-2-(2-(dimethylamino)ethoxy)cyclopropane-1-carboxamide]: the IC50 with K562 cells (72 hours) was 24.9 nM; with HL60 cells (Homo sapiens, HL-60, 72 h), more than 10000 nM.
As for `COc1nccc(OC2CC2)c1-c1c[nH]c2nc(NC(=O)C3CC3OCCN(C)C)ccc12` (single isomer, unassigned) [Example S220, Enantiomer 2, N-(3-(4-cyclopropoxy-2-methoxypyridin-3-yl)-1H-pyrrolo[2,3-b]pyridin-6-yl)-2-(2-(dimethylamino)ethoxy)cyclopropane-1-carboxamide], the IC50 in the test with K562 cells (72 hours) is 57.3 nM; in the test on HL60 cells (72 hours) it was more than 10000 nM.
As for `COc1nc2[nH]ccc2cc1-c1c[nH]c2nc(NC(=O)[C@H]3C[C@@H]3F)ccc12` [Compound 141, (1R,2S)-2-fluoro-N-(6′-methoxy-1H,1′H-[3,5′-bipyrrolo[2,3-b]pyridin]-6-yl)cyclopropane-1-carboxamide], the IC50 against ABL1 (T315I) worked out at 31.2 nM; on ABL1, 45.5 nM.
For `COc1c(F)cc(F)c(OC)c1-c1c[nH]c2nc(NC(=O)[C@@H]3C[C@@H]3F)ccc12` [Compound 120, (1S,2S)—N-[3-(3,5-difluoro-2,6-dimethoxyphenyl)-1H-pyrrolo[2,3-b]pyridin-6-yl]-2-fluorocyclopropane-1-carboxamide], in that order: 60.8 nM and 65.5 nM.
In the same order, the values of `COc1nc2[nH]ccc2cc1-c1c[nH]c2nc(NC(=O)[C@@H]3C[C@@H]3F)ccc12` [Compound 93, (1S,2S)-2-fluoro-N-(6′-methoxy-1H,1′H-[3,5′-bipyrrolo[2,3-b]pyridin]-6-yl)cyclopropane-1-carboxamide] are 2.94 nM and 5.3 nM.
Consider `COc1cccc(OC)c1-c1c[nH]c2nc(NC(=O)C3CC3CCN(C)C)ccc12` (single isomer, unassigned) [Example S205, Enantiomer 1, N-(3-(2,6-dimethoxyphenyl)-1H-pyrrolo[2,3-b]pyridin-6-yl)-2-(2-(dimethylamino)ethyl)cyclopropane-1-carboxamide], for which the IC50 in the test with K562 cells (72 hours) was determined as 21.5 nM; at ABL1 (T315I), 15 nM; against ABL1 it was 10.6 nM.
Turning to `O=C(Nc1ccc2c(-c3ccc4[nH]ccc4c3)c[nH]c2n1)C1CC1` [Compound 18, N-[3-(1H-indol-5-yl)-1H-pyrrolo[2,3-b]pyridin-6-yl]cyclopropanecarboxamide], the IC50 on ABL1 (T315I) was determined as 14.5 nM; on ABL1, 33 nM.
On to `O=C(Nc1ccc2c(-c3cccnc3OCC3CC3)c[nH]c2n1)C1CC1F` (single isomer, unassigned) [Example S148, Enantiomer 1, N-(3-(2-(cyclopropylmethoxy)pyridin-3-yl)-1H-pyrrolo[2,3-b]pyridin-6-yl)-2-fluorocyclopropane-1-carboxamide Enantiomer 1], for which the figures for the half-inhibitory concentration (IC50) against ABL1 (T315I) and on ABL1 were 1810 nM and 408 nM, respectively.
In the same order, the values of `COc1ccccc1-c1c[nH]c2nc(NC(=O)NCCC#N)ccc12` [Compound 104, 3-(2-cyanoethyl)-1-[3-(2-methoxyphenyl)-1H-pyrrolo[2,3-b]pyridin-6-yl]urea] are 29.1 nM and 102 nM.
With `COc1nccc(OC2CC2)c1-c1c[nH]c2nc(NC(=O)C3CC3OCCN3CCC3)ccc12` (single isomer, unassigned) [Example S221, Enantiomer 2, 2-(2-(azetidin-1-yl)ethoxy)-N-(3-(4-cyclopropoxy-2-methoxypyridin-3-yl)-1H-pyrrolo[2,3-b]pyridin-6-yl)cyclopropane-1-carboxamide], the results for the IC50 with K562 cells (72 hours) and in the test with HL60 cells (72 hours) were 39.7 nM and 8660 nM, respectively.
For the compound `Nc1ncccc1-c1c[nH]c2nc(NC(=O)C3CC3)ccc12` [Compound 36, N-[3-(2-aminopyridin-3-yl)-1H-pyrrolo[2,3-b]pyridin-6-yl]cyclopropanecarboxamide], the IC50 against ABL1 (T315I) was 690 nM; at ABL1, 202 nM.
In the same order, the values of `COc1ccccc1-c1c[nH]c2nc(NC(=O)NCC3CC3)ccc12` [Compound 122, 3-(cyclopropylmethyl)-1-[3-(2-methoxyphenyl)-1H-pyrrolo[2,3-b]pyridin-6-yl]urea] are 19.9 nM and 73.4 nM.
